These results are taken from patent US20160022642A1, “Compounds Useful for Promoting Protein Degradation and Methods Using Same” (Yale University, priority 2014, published 2016).

Structures are written as SMILES.

Common to all, as to assay type: cell-based
The test system of data set [1] is HEK 293T. Nature of the data set: Cell proliferation assay with HEK 293T cells. To be noted: 3 μM. On the procedure:
(§1) FIGS. 35A-35B are a series of graphs illustrating results of cell proliferation assay. Cell proliferation assay was performed with AR-negative PC-3 prostate cancer cells (FIG. 35A). Indicated compounds at shown doses were added to previously plated PC-3 cells in phenol-red free RPMI, supplemented with 5% charcoal stripped FBS. CellTiterGlo readings were taken at indicated days and the data are plotted as a % of proliferation from Day 0. Cell proliferation assay was performed with HEK293 cells (FIG. 35B), which were plated at 2,000 cells/well in a 6-well plate and dosed with indicated compounds at 3 μM.

Data set [2] concerns PC3 human prostate cancer cell line. In words: Cell proliferation assay with AR-negative PC-3 prostate cancer cells (CellTiterGlo). The note with it: 5% charcoal stripped FBS. On the procedure:
as §1
On the technique in general: Cellular ATP, detected with luciferase, serves as a proxy for viable cell number.

Data set [3] has as its system LnCAP cells. In words: LNCaP cell proliferation assay in the presence of 1 nM R1881 (CellTiterGlo). The note with it: 5% charcoal stripped serum, 7 days. On the procedure: (§2) LNCaP-AR cells were treated with hormone for 18 hours as indicated and then, RNA was isolated and FKBP52 expression was assessed by qPCR. GAPDH was used to normalize expression. Error represents standard deviation (Panel A). LNCaP cell proliferation assay in the presence of indicated compounds at 3 μM and then, the assay was performed in 10% FBS, and only viable cells were counted at each indicated day (Panel B). […] LNCaP/AR-F876L cells were treated with indicated compounds for 24 hours in 5% charcoal stripped FBS, and then, mRNA was prepared and the relative PSA mRNA was determined by qPCR (Panel D).
For FIG. 33, panel C, the LNCaP cells were washed with PBS, seeded at 5,000 cells per well in a 96-well plate in 5% Charcoal Stripped Serum (Omega) in phenol-red free RPMI media (Invitrogen). […] Baseline CellTiterGlo (Promega) reading was taken immediately after addition of compounds and 7 days later. The data are plotted so that the Y axis reflects the degree of proliferation at Day 7, compared to Day 0.

Data set [4] concerns the target T1, androgen receptor (AR) (Homo sapiens, UniProt P10275, T878A).
T1 construct: endogenous in cells; host or cells: LNCaP
T1 sequence (P10275 1-920 T878A): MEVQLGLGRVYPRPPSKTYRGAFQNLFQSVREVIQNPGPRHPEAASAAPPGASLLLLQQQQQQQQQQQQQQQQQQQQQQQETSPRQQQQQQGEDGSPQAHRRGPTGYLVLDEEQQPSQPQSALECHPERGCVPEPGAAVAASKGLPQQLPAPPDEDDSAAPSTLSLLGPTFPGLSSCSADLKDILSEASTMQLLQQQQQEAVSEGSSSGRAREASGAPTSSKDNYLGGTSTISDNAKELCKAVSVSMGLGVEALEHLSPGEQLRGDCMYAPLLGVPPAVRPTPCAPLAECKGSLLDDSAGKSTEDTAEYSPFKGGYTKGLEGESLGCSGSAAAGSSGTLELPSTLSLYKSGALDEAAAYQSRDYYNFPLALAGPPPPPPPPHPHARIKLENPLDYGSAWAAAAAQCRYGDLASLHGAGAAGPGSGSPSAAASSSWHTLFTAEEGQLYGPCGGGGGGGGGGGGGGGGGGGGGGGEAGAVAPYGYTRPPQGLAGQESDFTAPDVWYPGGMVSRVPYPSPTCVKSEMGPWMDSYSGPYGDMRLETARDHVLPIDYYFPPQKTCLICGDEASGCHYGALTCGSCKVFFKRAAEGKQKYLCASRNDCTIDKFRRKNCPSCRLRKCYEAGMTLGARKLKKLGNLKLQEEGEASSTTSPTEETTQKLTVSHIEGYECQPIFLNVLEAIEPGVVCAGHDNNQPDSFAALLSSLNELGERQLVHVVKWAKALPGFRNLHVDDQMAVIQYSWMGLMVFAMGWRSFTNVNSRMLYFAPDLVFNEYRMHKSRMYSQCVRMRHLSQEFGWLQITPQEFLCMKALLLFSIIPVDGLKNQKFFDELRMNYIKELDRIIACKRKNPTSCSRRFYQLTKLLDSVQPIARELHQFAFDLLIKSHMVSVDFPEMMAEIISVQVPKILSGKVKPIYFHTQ
Nature of the data set: SARD-mediated AR degradation, western blot in LNCaP cells. On the procedure: FIG. 15A illustrates representative western blots of SARD mediated AR degradation. FIG. 15B is a graph illustrating the percentage of remaining AR as a function of SARD compound concentration.
(§3) FIGS. 32A-32B show a series of representative western blots of SARD-mediated AR degradation according to the present description. LNCaP cells were treated with indicated compounds for 24 hours and SARD 279 and RU59063 were used at 2.5 μM and 25 μM, respectively (FIG. 32A).
(§4) LNCaP and PC3 cells were obtained from ATCC. LNCaP/AR-876L and LNCaP/AR cells were generated by infecting LNCaP cells with the 876L or WT, respectively, AR. All cells were grown at 37° C. in RPMI and supplemented with 10% FBS, 100 U/ml carbenicillin and 100 μg/ml streptomycin. AR (5153) and Hsp70 (4872) antibodies were obtained from Cell Signaling. β-actin antibody (AC-74) was purchased from Sigma. Geldanamycin was purchased from Invivogen. The indicated cells were washed twice with cold PBS, and the cells were lysed in lysis buffer (1×PBS, 1% NP-40, 1 mM EDTA, 40 mM HEPES) with protease inhibitors. The lysates were cleared by centrifugation at 10,000 g for 5 min. The total protein concentration was determined by Bradford assay, and 10 μg of protein was loaded onto an 8% Bis-Tris gel. The blots were processed by standard procedures with the indicated antibodies, and the band intensities were quantified by ImageJ (US National Institutes of Health).

The subject of data set [5] is AR target genes (FKBP52, PMPEA 1, NKX3.1) in LNCaP-AR cells. In words: AR-dependent gene expression by qPCR in LNCaP-AR cells. To be noted: 18 hours; for AR agonist activity: expression of AR target genes: qPCR normalized to GAPDH. The method, then:
as §2
FIGS. 34A-34B are a series of graphs illustrating relative pMPEA1 mRNA levels (FIG. 34A) or relative NKX3.1 mRNA levels (FIG. 34B) after treated with SARDS compounds according to the present description. LNCaP-AR cells were treated with hormone for 18 hours and subsequently, mRNA was isolated and FKBP52 expression was assessed by qPCR. GAPDH was used to normalize expression. Error represents standard deviation.
The effects of the SARDS in the present description on AR-dependent gene expression in AR overexpressing LNCaP-AR cells, a validated cellular model of CRPC were examined. LNCaP-AR cells were treated with hormone for 18 hours as indicated. RNA was isolated and FKBP52 expression was assessed by QPCR. GAPDH was used to normalize expression. Error represents standard deviation.

For data set [6], the system named is LnCAP cells. In words: Proliferation of androgen-dependent LnCAP cells. On the procedure: as §2
For FIG. 33, panel B, 2,000 cells in RPMI media, supplemented with 10% FBS, 100 U/ml carbenicillin and 100 μg/ml streptomycin, were plated into each well in a 6-well plate. Two days after plating, the cells were treated with indicated compounds. The number of cells in each well was counted with a hemocytometer using Trypan blue to distinguish viable cells.

Data set [7] relates to HEK293 cells. In words: General cell toxicity in AR-independent HEK293 cells. The note with it: HEK293, 1 μM, 48 h. On the procedure:
(§5) To access general cell toxicity, AR-independent HEK293 and HELA cells were treated with 1 μM SARD 279.

Data set [8] relates to HeLa cells. Nature of the data set: General cell toxicity in AR-independent HELA cells. To be noted: 1 μM, 48 h. The method, then:
as §5

The subject of data set [9] is Hsp70. Nature of the data set: Hsp70 immunoblot in LNCaP cells treated with SARD 279 and geldanamycin. The note with it: 24 hours. On the procedure: as §3, §4

Take `CNC(=O)c1ccc(N2C(=S)N(c3ccc(C#N)c(C(F)(F)F)c3)C(=O)C2(C)C)cc1F` [MDV3100, reference compound]: the “Proliferation of HEK 293T cells” value in data set [1] is “unaffected”. In [2], the “Proliferation of PC3 cells” value was “unaffected”. The “Antiproliferative activity in the presence of 1 nM R1881” value in [3] is “ineffective in the presence of higher androgen levels”.

For the compound `CC1(C)C(=O)N(c2ccc(C#N)c(C(F)(F)F)c2)C(=S)N1CCCCO` [RU59063, 4-[3-(4-hydroxybutyl)-4,4-dimethyl-5-oxo-2-thioxoimidazolidin-1-yl]-2-(trifluoromethyl)benzonitrile, reference compound], in [4], the “AR degradation (in words)” value is listed as “no degradation was detected”. Moreover, the “AR agonist activity: expression of AR target genes” value in data set [5] was “increasing expression of a number of AR target genes”.

As to `CC1(C)C(=O)N(c2ccc(C#N)c(C(F)(F)F)c2)C(=S)N1CCCC(=O)NCCOCCOCCOCCOC12CC3CC(CC(C3)C1)C2` [SARD 033, N-(2-(2-(2-(2-(Adamantan-1-yloxy)ethoxy)ethoxy)ethoxy)ethyl)-4-(3-(4-cyano-3-(trifluoromethyl)phenyl)-5,5-dimethyl-4-oxo-2-thioxoimidazolidin-1-yl)butanamide], in data set [6] (1 μM, several days), the “Cell growth / proliferation of LnCAP cells” value is reported as “significantly attenuated cell growth”. The “Proliferation of LNCaP cells, viable cell count” value in [6] (3 μM, 10% FBS, hemocytometer with Trypan blue, over 9 days) is “suppressed proliferation with similar efficacy to MDV3100”. Moreover, the “Antagonism of gene expression induced by R1881” value in [5] (qPCR) is “antagonized gene expression induced by the synthetic androgen R1881”. For the same compound, the “AR agonist activity: expression of AR target genes” value in [5] is reported as “no such agonist activity”. Also, the “Proliferation of HEK 293T cells” value in data set [1] is given as “unaffected”. In data set [2], the “Proliferation of PC3 cells” value is “unaffected”.

With `CC1(C)C(=O)N(c2ccc(C#N)c(C(F)(F)F)c2)C(=S)N1CCCC(=O)NCCOCCOC(=O)CC12CC3CC(CC(C3)C1)C2` [SARD 279, 2-(2-(4-(3-(4-Cyano-3-(trifluoromethyl)phenyl)-5,5-dimethyl-4-oxo-2-thioxoimidazolidin-1-yl)butanamido)ethoxy)ethyl 2-(adamantan-1-yl)acetate], in [4] (read-out: DC50 (half maximum degradation concentration) of AR), the DC50 came to 1000 nM. Besides, the “Cytotoxicity compared to vehicle” value in data set [7] and in [8] was “did not display cytotoxic results” in each case.

`CCOCCOCCNC(=O)CCCN1C(=S)N(c2ccc(C#N)c(C(F)(F)F)c2)C(=O)C1(C)C` [SARD 280, 4-(3-(4-Cyano-3-(trifluoromethyl)phenyl)-5,5-dimethyl-4-oxo-2-thioxoimidazolidin-1-yl)-N-(2-(2-ethoxyethoxy)ethyl)butanamide]: in data set [4], the “AR degradation (in words)” value was “affected degradation only at higher concentrations and did not achieve complete AR degradation at the concentrations assayed”.

For `COC1=C2C[C@@H](C)C[C@H](OC)[C@H](O)[C@@H](C)/C=C(\C)[C@H](OC(N)=O)[C@@H](OC)/C=C\C=C(/C)C(=O)NC(=CC1=O)C2=O` [geldanamycin, (4E,6Z,8S,9S,10E,12S,13R,14S,16R)-13-hydroxy-8,14,19-trimethoxy-4,10,12,16-tetramethyl-3,20,22-trioxo-2-azabicyclo[16.3.1]docosa-1(21),4,6,10,18-pentaen-9-yl carbamate], in [9], the “Hsp70 levels (immunoblot)” value was “geldanamycin-dependent increase in Hsp70 levels”.
